According to patent US7407648B2, “Merocyanine derivatives for cosmetic use” (Ciba Specialty Chemicals Corp., priority 2002, dated 2008):

Assay: UV absorption spectroscopic data (λmax, ε, E 1%/1 cm) of the merocyanine UV absorbers
Format: physicochemical
Set-up: λmax: unit not given beside the values
Conditions: for λmax [nm]: Table MC1; for E (1%, 1 cm) / ε / λmax / λmax (sh): Table MC3; for ε: at λmax; for λmax (sh): shoulder

CCCCC(CC)COC(=O)/C(C#N)=C1/C=C(NCCNC2=C/C(=C(\C#N)C(=O)OCC(CC)CCCC)CC(C)(C)C2)CC(C)(C)C1 (centres unmarked) [MC01]
λmax [nm] (in MeOH): 362 (MeOH) nm

CCOC(=O)C(C(=O)OCC)=C1C=C(NCCNC2=CC(=C(C(=O)OCC)C(=O)OCC)CC(C)(C)C2)CC(C)(C)C1 [MC03]
λmax [nm] (in MeOH): 372 (MeOH) nm

CC1(C)CC(NCCNC2=CC(=C(C#N)C#N)CC(C)(C)C2)=CC(=C(C#N)C#N)C1 [MC04]
λmax [nm] (in MeOH): 361 (MeOH) nm

CCOC(=O)/C(=C1\C=C(NCCNC2=C/C(=C(\C(=O)OCC)S(=O)(=O)c3ccccc3)CCC2)CCC1)S(=O)(=O)c1ccccc1 [MC05]
λmax [nm] (in MeOH): 362 (MeOH) nm

Cc1ccc(S(=O)(=O)/C(C#N)=C\C=C2\OCC(C)(C)N2C)cc1 [MC06]
λmax [nm] (in MeOH): 374 (MeOH) nm

CCOC(=O)C(C(=O)OCC)=C1C=C(N2CCN(C3=CC(=C(C(=O)OCC)C(=O)OCC)CC(C)(C)C3)CC2)CC(C)(C)C1 [MC08]
λmax [nm] (in MeOH): 373 (MeOH) nm

CCOC(=O)/C(C#N)=C1\C=C(NC2CCCCC2NC2=C/C(=C(/C#N)C(=O)OCC)CC(C)(C)C2)CC(C)(C)C1 (centres unmarked) [MC09]
λmax [nm] (in MeOH): 370 (MeOH) nm

CCOC(=O)C(C(=O)OCC)=C1C=C(NC2CCCCC2NC2=CC(=C(C(=O)OCC)C(=O)OCC)CC(C)(C)C2)CC(C)(C)C1 (centres unmarked) [MC10]
λmax [nm] (in MeOH): 362 (MeOH) nm

CCOC(=O)/C(C#N)=C1\C=C(NCCN(CCNC2=C/C(=C(/C#N)C(=O)OCC)CC(C)(C)C2)CCNC2=C/C(=C(\C#N)C(=O)OCC)CC(C)(C)C2)CC(C)(C)C1 [MC11]
λmax [nm] (in MeOH): 375 (MeOH) nm

CN(CCCNC1=CC(=C2C(=O)CC(C)(C)CC2=O)CCC1)CCCNC1=CC(=C2C(=O)CC(C)(C)CC2=O)CCC1 [MC12]
λmax [nm] (in MeOH): 392 (MeOH) nm

CC1(C)CC(NCCCOCCOCCNC2=CC(=C3C(=O)OC(C)(C)OC3=O)CC(C)(C)C2)=CC(=C2C(=O)OC(C)(C)OC2=O)C1 [MC13]
λmax [nm] (in MeOH): 380 (MeOH) nm

CCOC(=O)C(C(=O)OCC)=C1C=C(NCc2ccc(CNC3=CC(=C(C(=O)OCC)C(=O)OCC)CCC3)cc2)CCC1 [MC14]
λmax [nm] (in MeOH): 392 (MeOH) nm

CCCCCCNC(=O)/C(=C1\C=C(NCCCNC2=C/C(=C(\C(=O)NCCCCCC)S(=O)(=O)c3ccccc3)CCC2)CCC1)S(=O)(=O)c1ccccc1 [MC16]
λmax [nm] (in MeOH): 390 (MeOH) nm

CCCCC(CC)COC(=O)/C(=C1\C=C(NCCCNC2=C/C(=C(\C(=O)OCC(CC)CCCC)S(=O)(=O)c3ccccc3)CCC2)CCC1)S(=O)(=O)c1ccccc1 (centres unmarked) [MC17]
λmax [nm] (in MeOH): 385 (MeOH) nm

CCOC(=O)/C(C#N)=C1\C=C(NCCCCCCNC2=C/C(=C(/C#N)C(=O)OCC)CCC2)CCC1 [MC18]
λmax [nm] (in MeOH): 384 (MeOH) nm

CCOC(=O)C(C(=O)OCC)=C1C=C(NCCCCCCNC2=CC(=C(C(=O)OCC)C(=O)OCC)CCC2)CCC1 [MC19]
λmax [nm] (in MeOH): 373 (MeOH) nm

COc1cc(OC(=O)/C(C(C)=O)=C2/C=C(NCC(C)NC3=C/C(=C(\C(C)=O)C(=O)Oc4cc(OC)c(OC)c(OC)c4)CC(C)(C)C3)CC(C)(C)C2)cc(OC)c1OC (centres unmarked) [MC22]
λmax [nm] (in MeOH): 395 (MeOH) nm

CCOC(=O)/C(C#N)=C1\C=C(NC2CC(C)(C)CC(C)(CNC3=C/C(=C(\C#N)C(=O)OCC)CC(C)(C)C3)C2)CC(C)(C)C1 (centres unmarked) [MC24]
λmax [nm] (in MeOH): 388 (MeOH) nm

CCOC(=O)C(C(=O)OCC)=C1C=C(NCC2(C)CC(NC3=CC(=C(C(=O)OCC)C(=O)OCC)CC(C)(C)C3)CC(C)(C)C2)CC(C)(C)C1 (centres unmarked) [MC25]
λmax [nm] (in MeOH): 395 (MeOH) nm

CCCCC(CC)CNC(=O)/C(C#N)=C1/C=C(N2CCN(C3=C/C(=C(\C#N)C(=O)NCC(CC)CCCC)CC(C)(C)C3)C(C)C2)CC(C)(C)C1 (centres unmarked) [MC26]
λmax [nm] (in MeOH): 374 (MeOH) nm

CC(=O)/C(C(=O)OCC(C)C)=C1/C=C(NCC(C)(CNC2=C/C(=C(\C(C)=O)C(=O)OCC(C)C)CC(C)(C)C2)CNC2=C/C(=C(\C(C)=O)C(=O)OCC(C)C)CC(C)(C)C2)CC(C)(C)C1 [MC27]
λmax [nm] (in MeOH): 385 (MeOH) nm

CCCCC(CC)(CCCNC1=C/C(=C(/C(=O)OCC)C(=O)c2ccc(OC)cc2)CCC1)CNC1=C/C(=C(/C(=O)OCC)C(=O)c2ccc(OCC)cc2)CCC1 (centres unmarked) [MC28]
λmax [nm] (in MeOH): 373 (MeOH) nm

COCCOC(=O)/C(C(C)=O)=C1/C=C(NCCC(C)(C)CC(C)CNC2=C/C(=C(\C(C)=O)C(=O)OCCOC)CC(C)C2)CC(C)C1 (centres unmarked) [MC29]
λmax [nm] (in MeOH): 383 (MeOH) nm

CC(=O)/C(C(=O)NCCNC(=O)/C(C(C)=O)=C1/C=C(N2CCCCC2)CCC1)=C1\C=C(N2CCCCC2)CCC1 [MC30]
λmax [nm] (in MeOH): 385 (MeOH) nm

CC(=O)/C(C(=O)Nc1ccc(NC(=O)/C(C(C)=O)=C2/C=C(N3CCCC3)CC(C)(C)C2)cc1)=C1\C=C(N2CCCC2)CC(C)(C)C1 [MC31]
λmax [nm] (in MeOH): 394 (MeOH) nm

CCOC(=O)/C(=C1\C=C(NC(C)CC)CCC1)C(OC)(C(=O)OCC)/C(C(=O)OCC)=C1/C=C(NC(C)CC)CCC1 (centres unmarked) [MC33]
λmax [nm] (in MeOH): 375 (MeOH) nm

CC1(C)CC(NC2CCCCC2NC2=CC(=C(C#N)C#N)CC(C)(C)C2)=CC(=C(C#N)C#N)C1 (centres unmarked) [MC34]
λmax [nm] (in MeOH): 383 (MeOH) nm

COC(=O)C(C(=O)OC)=C1C=C(NC2CCCCC2NC2=CC(=C(C(=O)OC)C(=O)OC)CCC2)CCC1 (centres unmarked) [MC35]
λmax [nm] (in MeOH): 374 (MeOH) nm

CCCCCCN(C=CC=C(C(C)=O)S(=O)(=O)c1ccc(C)cc1)CC [MC36]
λmax [nm] (in MeOH): 385 (MeOH) nm

CCCCC(CC)COC(=O)C(C#N)=CC=CN(CC)CC (centres unmarked) [MC39]
λmax [nm] (in EtOH): 380 (EtOH) nm | E (1%, 1 cm): 2037 | ε: 62400 L/mol/cm | λmax (solvent not given): 380

CCCCCCCCOC(=O)/C(=C\C=C\N(CC)CC)S(=O)(=O)c1ccccc1 [MC172]
E (1%, 1 cm): 1724 | ε: 72700 L/mol/cm | λmax (solvent not given): 371

CCCCC(CC)COC(=O)/C(C#N)=C\C=C\N(CC)CCCN(/C=C/C=C(/C#N)C(=O)OCC(CC)CCCC)CC (centres unmarked) [MC173]
E (1%, 1 cm): 1545 | ε: 92000 L/mol/cm | λmax (solvent not given): 390

CCCCC(CC)COC(=O)/C(C#N)=C/C=C/N1CCN(/C=C/C=C(\C#N)C(=O)OCC(CC)CCCC)CC1 (centres unmarked) [MC174]
E (1%, 1 cm): 2650 | ε: 146 379 | λmax (solvent not given): 398

CN(C)/C=C/C=C1C(=O)OC(C)(C)OC1=O [MC175]
E (1%, 1 cm): 3022 | ε: 68000 L/mol/cm | λmax (solvent not given): 383

COC(=O)C(=C/C=C/N(C)C)C(=O)OC [MC177]
E (1%, 1 cm): 2488 | ε: 53000 L/mol/cm | λmax (solvent not given): 373

COC(=O)C(=C/C=C/N1CCOCC1)C(=O)OC [MC178]
E (1%, 1 cm): 1476 | ε: 37700 L/mol/cm | λmax (solvent not given): 373

COC(=O)C(=C/C=C/N1CCCCC1)C(=O)OC [MC179]
E (1%, 1 cm): 1953 | ε: 49500 L/mol/cm | λmax (solvent not given): 377

COC(=O)C(=C/C=C/N(C(C)C)C(C)C)C(=O)OC [MC180]
E (1%, 1 cm): 2111 | ε: 56800 L/mol/cm | λmax (solvent not given): 378

CCOC(=O)C(=C/C=C/N1CCOCC1)C(=O)OCC [MC181]
E (1%, 1 cm): 1684 | ε: 47700 L/mol/cm | λmax (solvent not given): 371

CCCCN(/C=C/C=C(C(=O)OCC)C(=O)OCC)CCCC [MC182]
E (1%, 1 cm): 1423 | ε: 60600 L/mol/cm | λmax (solvent not given): 377

CCCCC(CC)COC(=O)/C(C#N)=C\C=C\N(CC)CCCCN(/C=C/C=C(/C#N)C(=O)OCC(CC)CCCC)CC (centres unmarked) [MC183]
E (1%, 1 cm): 2570 | ε: 111000 L/mol/cm | λmax (sh) (solvent not given): 370 | λmax (solvent not given): 386

CCCCC(CC)COC(=O)/C(C#N)=C1\C=C(N2CCOCC2)CC(C)(C)C1 (centres unmarked) [MC184]
λmax (acetonitrile): 399

CCCCC(CC)COC(=O)/C(C#N)=C1\C=C(NC(C)CC)CC(C)(C)C1 (centres unmarked) [MC185]
λmax (acetonitrile): 388 | λmax (sh) (acetonitrile): 368

CCOC(=O)C(C(=O)OCC)=C1C=C(N2CCOCC2)CC(C)(C)C1 [MC186]
λmax (acetonitrile): 376
